Some test systems named below: CCRF-CEM leukemia; UACC-62 melanoma; K-562 leukemia; OVCAR-5 ovarian; MOLT-4 leukemia; SF-268 CNS; NCI/ADR-RES ovarian; COLO 205 colon; HL-60(TB) leukemia; RPMI-8226 leukemia; NCI-H460 lung; MCF7 breast; NCI-H226 lung; IGROV1 ovarian; SK-OV-3 ovarian; OVCAR-3 ovarian; SW-620 colon; 786-0 renal; T-47D breast; SR leukemia.
Assay in all cases: growth of human tumour cells (NCI), 48 h

Molecules are shown by their SMILES.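 How tested: cells in 96-well plates exposed to compound for 48 hours at five concentrations. TGI is the concentration that stops growth completely.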

In the case of `C=CC12CN(C)C3C4COC(CC41)C1(C(=O)Nc4ccccc41)C32` (stereo not given), the TGI is more than 195 µM with CCRF-CEM leukemia; more than 200 µM in the test on UACC-62 melanoma; more than 200 µM in the test with K-562 leukemia; more than 200 µM with OVCAR-5 ovarian; more than 200 µM with MOLT-4 leukemia; more than 200 µM in the test on SF-268 CNS. The TGI in the test on NCI/ADR-RES ovarian was more than 200 µM; in the test with COLO 205 colon, more than 200 µM; in the test on HL-60(TB) leukemia, more than 186 µM; in the test on RPMI-8226 leukemia, more than 200 µM; with NCI-H460 lung it was more than 200 µM; in the test on MCF7 breast it was more than 200 µM. Moreover, the TGI in the test on NCI-H226 lung is more than 200 µM; in the test on IGROV1 ovarian, more than 200 µM; in the test on SK-OV-3 ovarian, more than 82.4 µM; in the test with OVCAR-3 ovarian, more than 200 µM; in the test with SW-620 colon, more than 200 µM.

As for `OC(c1ccccc1)(c1ccccc1)c1cccnc1`, the TGI in the test on CCRF-CEM leukemia, in the test with UACC-62 melanoma, with K-562 leukemia, in the test on OVCAR-5 ovarian, in the test with SF-268 CNS and in the test on COLO 205 colon was more than 100 µM in each case. The TGI with RPMI-8226 leukemia, in the test with NCI-H460 lung, with NCI-H226 lung, with 786-0 renal, with IGROV1 ovarian and in the test on SK-OV-3 ovarian was more than 100 µM in each case. The TGI with OVCAR-3 ovarian and in the test with SW-620 colon was more than 100 µM throughout.

As for `O=C1C=CC(=O)c2c(O)c(N[C@@H](Cc3ccccc3)C(=O)OCc3ccccc3)c(Cl)c(O)c21`, the TGI in the test on CCRF-CEM leukemia is more than 10 µM; in the test on UACC-62 melanoma it was more than 10 µM; in the test with OVCAR-5 ovarian it was more than 10 µM; in the test with T-47D breast, more than 10 µM; with SF-268 CNS, more than 10 µM; with NCI/ADR-RES ovarian it was 5.62 µM. The TGI in the test with COLO 205 colon is 6.71 µM; with HL-60(TB) leukemia, more than 10 µM; in the test on RPMI-8226 leukemia it was more than 10 µM; in the test with NCI-H460 lung, more than 10 µM; in the test on NCI-H226 lung it was more than 10 µM; in the test on 786-0 renal, more than 10 µM. Further, the TGI in the test on IGROV1 ovarian is more than 10 µM; in the test with SK-OV-3 ovarian, more than 10 µM; with OVCAR-3 ovarian, 7.15 µM; in the test with SW-620 colon, more than 10 µM.

Turning to `C1=NCCOCCN=Cc2ccccc2OCc2cccc(n2)COc2ccccc21`, the TGI was more than 25 µM in the test on CCRF-CEM leukemia; 9.09 µM in the test on UACC-62 melanoma; more than 25 µM with K-562 leukemia; more than 25 µM in the test on OVCAR-5 ovarian; 18.4 µM in the test on MOLT-4 leukemia; more than 25 µM in the test on SF-268 CNS. The TGI was 13.4 µM with NCI/ADR-RES ovarian; more than 25 µM with COLO 205 colon; 16.3 µM in the test with HL-60(TB) leukemia; 14 µM with RPMI-8226 leukemia; more than 25 µM in the test on NCI-H460 lung; 19.4 µM with MCF7 breast. The TGI in the test on 786-0 renal is more than 25 µM; with IGROV1 ovarian, more than 25 µM; in the test on SK-OV-3 ovarian, more than 25 µM; in the test with SR leukemia it was 9.91 µM; with OVCAR-3 ovarian, 9.01 µM; in the test with SW-620 colon, more than 25 µM.

As to `[O-]c1on[n+]2c1c(Nc1ccc(Cl)cc1)nc1ccccc12`, the TGI in the test on CCRF-CEM leukemia, in the test with UACC-62 melanoma, in the test on K-562 leukemia, in the test with OVCAR-5 ovarian, with MOLT-4 leukemia and in the test with SF-268 CNS was more than 100 µM throughout. For the same compound, the TGI in the test with COLO 205 colon, in the test with HL-60(TB) leukemia, with RPMI-8226 leukemia, in the test with NCI-H460 lung, in the test with 786-0 renal and with IGROV1 ovarian was more than 100 µM each time. For the same compound, the TGI in the test with SK-OV-3 ovarian, in the test with SR leukemia, with OVCAR-3 ovarian and in the test on SW-620 colon was more than 100 µM in each case.

On to `CC(C)=CCC/C(C)=C/Cc1c(O)ccc2c1[nH]c1cc(O)c(C)cc12`, for which the TGI with CCRF-CEM leukemia, in the test with UACC-62 melanoma, with K-562 leukemia, with OVCAR-5 ovarian, in the test with MOLT-4 leukemia and with SF-268 CNS was more than 25 µM each time. Moreover, the TGI in the test on COLO 205 colon, in the test on HL-60(TB) leukemia, with RPMI-8226 leukemia, in the test with NCI-H460 lung, in the test on NCI-H226 lung and in the test with 786-0 renal was more than 25 µM each time. Besides, the TGI is more than 25 µM in the test with IGROV1 ovarian; more than 25 µM in the test with SK-OV-3 ovarian; more than 25 µM in the test with SR leukemia; 21.2 µM with OVCAR-3 ovarian; more than 25 µM with SW-620 colon.

For `COC(=O)[C@@]12OC[C@]34C([C@@H](O)C1O)[C@@]1(C)CC(=O)C(O)=C(C)C1C[C@H]3OC(=O)[C@H](OC(=O)CC(C)C(F)(F)F)[C@H]42` (stereo not given in full), the TGI in the test on UACC-62 melanoma was 0.0629 µM; in the test with OVCAR-5 ovarian it was 1.18 µM; in the test on MOLT-4 leukemia it was 0.312 µM; in the test on SF-268 CNS it was 0.644 µM; with COLO 205 colon, 0.415 µM; in the test with HL-60(TB) leukemia, 0.0175 µM. In addition, the TGI in the test with RPMI-8226 leukemia came out at 0.0512 µM; with NCI-H460 lung, 0.0554 µM; with NCI-H226 lung, 0.0338 µM; with 786-0 renal, 0.708 µM; in the test on IGROV1 ovarian it was 1.05 µM; with SK-OV-3 ovarian, 0.531 µM. Further, the TGI came out at 0.0215 µM with SR leukemia and 1.37 µM in the test on SW-620 colon.

Turning to `CC(C)CNC(=O)Cn1c2c(c3ccccc31)CCCC2`, the TGI with CCRF-CEM leukemia, with UACC-62 melanoma, with K-562 leukemia, with OVCAR-5 ovarian, with MOLT-4 leukemia and in the test on SF-268 CNS was more than 100 µM throughout. Besides, the TGI in the test on NCI/ADR-RES ovarian, in the test with COLO 205 colon, in the test on HL-60(TB) leukemia, in the test with RPMI-8226 leukemia, with NCI-H460 lung and with MCF7 breast was more than 100 µM each time. The TGI was 61.2 µM in the test with 786-0 renal; more than 100 µM in the test with IGROV1 ovarian; more than 100 µM with SK-OV-3 ovarian; more than 100 µM in the test with SR leukemia; more than 100 µM in the test on OVCAR-3 ovarian; more than 100 µM in the test on SW-620 colon.
